Experiments:
[1] = molecular target: T1, WRN [UniPro: Q14191 (WRN_HUMAN), N500-C946] (Homo sapiens (Human), UniProt Q14191); experiment: WRN ATPase assay (ADP-Glo); format: biochemical; details: WRN enzymatic activity assay
[2] = molecular target: T1, WRN [UniPro: Q14191 (WRN_HUMAN), N500-C946]; experiment: WRN unwinding assay (FORKF DNA, fluorescence); format: biochemical; details: Table 14

T1 sequence (Q14191 500-946): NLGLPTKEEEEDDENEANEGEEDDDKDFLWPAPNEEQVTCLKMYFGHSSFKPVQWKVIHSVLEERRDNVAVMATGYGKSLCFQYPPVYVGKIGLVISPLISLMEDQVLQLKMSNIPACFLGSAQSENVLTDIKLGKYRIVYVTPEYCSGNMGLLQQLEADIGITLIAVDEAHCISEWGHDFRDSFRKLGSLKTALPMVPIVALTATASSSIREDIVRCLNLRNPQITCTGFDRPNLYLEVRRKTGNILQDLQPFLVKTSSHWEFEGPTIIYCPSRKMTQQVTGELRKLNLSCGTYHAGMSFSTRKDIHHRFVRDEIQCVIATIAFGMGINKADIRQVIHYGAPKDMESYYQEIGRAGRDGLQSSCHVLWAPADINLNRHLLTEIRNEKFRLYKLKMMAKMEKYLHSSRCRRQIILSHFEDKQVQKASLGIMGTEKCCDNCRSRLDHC

Row | SMILES | IC50 [1] [nM] | IC50 [2] [nM]
1 | CCc1c(N2CCN(C(=O)CNC(=O)Nc3ccccc3)CC2)c(=O)n2nc(C3=CCOCC3)nc2n1CC(=O)Nc1ccc(C(F)(F)F)cc1Cl [Example 178, N-(2-Chloro-4-(trifluoromethyl)phenyl)-2-(2-(3,6-dihydro-2H-pyran-4-yl)-5-ethyl-7-oxo-6-(4-((phenylcarbamoyl)glycyl)piperazin-1-yl)-[1,2,4]triazolo[1,5-a]pyrimidin-4 (7H)-yl)acetamide] | < 100 | < 100
2 | CCc1c(N2CCN(C(=O)c3c[nH]c(=O)[nH]c3=O)CC2)c(=O)n2nc(C3=CCOCC3)nc2n1CC(=O)Nc1ccc(C(F)(F)F)cc1Cl [Example 50, N-(2-Chloro-4-(trifluoromethyl)phenyl)-2-(2-(3,6-dihydro-2H-pyran-4-yl)-6-(4-(2,4-dioxo-1,2,3,4-tetrahydropyrimidine-5-carbonyl)piperazin-1-yl)-5-ethyl-7-oxo-[1,2,4]triazolo[1,5-a]pyrimidin-4(7H)-yl)acetamide] | < 100 | 100 to 1000
3 | CCc1c(N2CCN(C(=O)c3nnc(C)[nH]3)CC2)c(=O)n2nc(C3=CCOCC3)nc2n1CC(=O)Nc1ccc(C(F)(F)F)cc1F [Example 312, 2-(2-(3,6-Dihydro-2H-pyran-4-yl)-5-ethyl-6-(4-(5-methyl-4H-1,2,4-triazole-3-carbonyl)piperazin-1-yl)-7-oxo-[1,2,4]triazolo[1,5-a]pyrimidin-4(7H)-yl)-N-(2-fluoro-4-(trifluoromethyl)phenyl)acetamide] | 100 to 1000 | 100 to 1000
4 | CCc1c(N2CCN(C(=O)CNC(=O)c3ccc(F)s3)CC2)c(=O)n2nc(C3=CCOCC3)nc2n1CC(=O)Nc1ccc(C(F)(F)F)cc1Cl [Example 375, N-(2-(4-(4-(2-((2-Chloro-4-(trifluoromethyl)phenyl)amino)-2-oxoethyl)-2-(3,6-dihydro-2H-pyran-4-yl)-5-ethyl-7-oxo-4,7-dihydro-[1,2,4]triazolo[1,5-a]pyrimidin-6-yl)piperazin-1-yl)-2-oxoethyl)-5-fluorothiophene-2-carboxamide] | < 100 | < 100
5 | CCc1c(N2CCN(C(=O)CNC(=O)c3ccncc3O)CC2)c(=O)n2nc(C3=CCOCC3)nc2n1CC(=O)Nc1ccc(C(F)(F)F)cc1Cl [Example 381, N-(2-(4-(4-(2-((2-Chloro-4-(trifluoromethyl)phenyl)amino)-2-oxoethyl)-2-(3,6-dihydro-2H-pyran-4-yl)-5-ethyl-7-oxo-4,7-dihydro-[1,2,4]triazolo[1,5-a]pyrimidin-6-yl)piperazin-1-yl)-2-oxoethyl)-3-hydroxyisonicotinamide] | < 100 | < 100
6 | CCc1c(N2CCN(C(=O)CNC(=O)c3ccc(C(F)(F)F)cc3)CC2)c(=O)n2nc(C3=CCOCC3)nc2n1CC(=O)Nc1ccc(C(F)(F)F)cc1Cl [Example 176, N-(2-(4-(4-(2-((2-Chloro-4-(trifluoromethyl)phenyl)amino)-2-oxoethyl)-2-(3,6-dihydro-2H-pyran-4-yl)-5-ethyl-7-oxo-4,7-dihydro-[1,2,4]triazolo[1,5-a]Pyrimidin-6-yl)piperazin-1-yl)-2-oxoethyl)-4-(trifluoromethyl)benzamide] | 100 to 1000 | 100 to 1000
7 | CCc1c(N2CCN(C(=O)CNC(=O)c3ccccc3F)CC2)c(=O)n2nc(C3=CCOCC3)nc2n1CC(=O)Nc1sc(C)cc1Br [Example 152, N-(2-(4-(4-(2-((3-bromo-5-methylthiophen-2-yl)amino)-2-oxoethyl)-2-(3,6-dihydro-2H-pyran-4-yl)-5-ethyl-7-oxo-4,7-dihydro-[1,2,4]triazolo[1,5-a]pyrimidin-6-yl)piperazin-1-yl)-2-oxoethyl)-2-fluorobenzamide] | 100 to 1000 | < 100

Reference: patent publication US20260015358A1, “BICYCLIC DERIVATIVES, COMPOSITIONS AND USES THEREOF” (Danatlas Pharmaceuticals Co., Ltd., priority 2023, published 2026)
